In PubChem BioAssay (NCI):
Where “and” joins values, the source holds several entries; their conditions need not be identical. Equal entries are not always repeated.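 Five concentrations, 48 hours, 96-well plates. At the GI50, growth is halved. Definition used: TGI = concentration required for complete inhibition of growth.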

Tests used:
Test in all cases: growth of human tumour cells (NCI), 48 h
[1] = test system: SK-MEL-2 melanoma
[2] = test system: SNB-19 CNS
[3] = test system: OVCAR-3 ovarian
[4] = test system: UACC-62 melanoma
[5] = test system: NCI-H522 lung
[6] = test system: NCI-H226 lung
[7] = test system: U251 CNS
[8] = test system: IGROV1 ovarian
[9] = test system: MOLT-4 leukemia
[10] = test system: HCT-116 colon
[11] = test system: RPMI-8226 leukemia
[12] = test system: LXFL 529 NSCLC
[13] = test system: EKVX NSCLC
[14] = test system: K-562 leukemia
[15] = test system: HCC-2998 colon
[16] = test system: SN12C renal
[17] = test system: SK-OV-3 ovarian
[18] = test system: CAKI-1 renal
[19] = test system: OVCAR-5 ovarian
[20] = test system: OVCAR-4 ovarian
[21] = test system: CCRF-CEM leukemia
[22] = test system: M14 melanoma
[23] = test system: COLO 205 colon
[24] = test system: ACHN renal
[25] = test system: DLD-1 colon
[26] = test system: OVCAR-8 ovarian
[27] = test system: NCI-H23 lung
[28] = test system: SF-268 CNS
[29] = test system: UACC-257 melanoma
[30] = test system: SW-620 colon
[31] = test system: A549 NSCLC
[32] = test system: SNB-75 CNS
[33] = test system: SF-539 CNS
[34] = test system: HL-60(TB) leukemia
[35] = test system: SNB-78 CNS
[36] = test system: TK-10 renal
[37] = test system: 786-0 renal
[38] = test system: XF 498 CNS
[39] = test system: HOP-62 NSCLC
[40] = test system: KM20L2 colon
[41] = test system: HOP-18 NSCLC
[42] = test system: DMS 114 small cell lung
[43] = test system: KM12 colon
[44] = test system: M19-MEL melanoma
[45] = test system: HT29 colon
[46] = test system: RXF 393 renal
[47] = test system: LOX IMVI melanoma
[48] = test system: DMS 273 small cell lung
[49] = test system: HCT-15 colon
[50] = test system: SK-MEL-28 melanoma
[51] = test system: SF-295 CNS
[52] = test system: UO-31 renal
[53] = test system: MALME-3M melanoma
[54] = test system: SR leukemia
[55] = test system: HOP-92 NSCLC
[56] = test system: T-47D breast
[57] = test system: PC-3 prostate
[58] = test system: NCI-H460 lung
[59] = test system: MCF7 breast
[60] = test system: MDA-N
[61] = test system: NCI/ADR-RES ovarian
[62] = test system: A498 renal
[63] = test system: DU-145 prostate
[64] = test system: MDA-MB-231 breast
[65] = test system: MDA-MB-435
[66] = test system: BT-549 breast
[67] = test system: SK-MEL-5 melanoma
[68] = test system: HS 578T breast

c1ccc(-c2nnc(-c3nn(-c4ccccc4)c4nc5ccccc5nc34)o2)cc1
TGI [1]: > 100 µM
TGI [2]: > 100 µM
TGI [3]: > 100 µM
TGI [4]: > 100 µM
TGI [5]: > 100 µM
TGI [6]: 99.5 µM
TGI [7]: > 100 µM
TGI [8]: > 100 µM
TGI [9]: 71.6 µM
TGI [10]: > 100 µM
TGI [11]: > 100 µM
TGI [12]: > 100 µM
TGI [13]: > 100 µM
TGI [14]: > 100 µM
TGI [15]: > 100 µM
TGI [16]: > 100 µM
TGI [17]: > 100 µM
TGI [18]: > 100 µM
TGI [19]: > 100 µM
TGI [20]: > 100 µM
TGI [21]: 85.5 µM
TGI [22]: > 100 µM
TGI [23]: > 100 µM
TGI [24]: > 100 µM
TGI [25]: > 100 µM
TGI [26]: > 100 µM
TGI [27]: > 100 µM
TGI [28]: > 100 µM
TGI [29]: > 100 µM
TGI [30]: > 100 µM
TGI [31]: > 100 µM
TGI [32]: > 100 µM
TGI [33]: > 100 µM
TGI [34]: 85.2 µM
TGI [35]: > 100 µM
TGI [36]: > 100 µM
TGI [37]: > 100 µM
TGI [38]: 61 µM
TGI [39]: > 100 µM
TGI [40]: > 100 µM
TGI [41]: > 100 µM
TGI [42]: > 100 µM
TGI [43]: > 100 µM
TGI [44]: > 100 µM
TGI [45]: > 100 µM
TGI [46]: 41.4 µM
TGI [47]: > 100 µM
TGI [48]: > 100 µM
TGI [49]: > 100 µM
TGI [50]: > 100 µM
TGI [51]: > 100 µM
TGI [52]: > 100 µM
TGI [53]: > 100 µM

O=c1c(Cl)c(Cl)cnn1-c1ccccc1
TGI [54]: > 19.7 µM and 3.92 µM
TGI [1]: 15.5 µM and 14.5 µM
GI50 [2]: 4.93 µM and > 23.2 µM
TGI [2]: 13.7 µM and > 41.7 µM
TGI [3]: 4.22 µM and 3.94 µM
TGI [4]: 3.34 µM and 5.36 µM
TGI [5]: 2.82 µM and 3.79 µM
GI50 [55]: 1.98 µM and 7.58 µM
TGI [55]: 3.61 µM and 16 µM
TGI [6]: 12.9 µM and 21.4 µM
TGI [7]: 3.37 µM and 7.42 µM
TGI [56]: 16.4 µM and 5.04 µM
GI50 [57]: 5.42 µM and 1.77 µM
TGI [57]: 12 µM and 3.23 µM
GI50 [8]: 1.81 µM and 7.02 µM
TGI [8]: 3.37 µM and 21.5 µM
TGI [9]: 7.19 µM and 4.14 µM
TGI [10]: 3.5 µM and 6.4 µM
TGI [11]: > 38.7 µM and 27 µM
TGI [58]: 10.3 µM and 8.61 µM
TGI [12]: 11.9 µM and 3.13 µM
GI50 [13]: 5.44 µM and 15.4 µM
TGI [13]: 10.5 µM and 33.4 µM
TGI [59]: 18.9 µM and 13.6 µM
TGI [60]: 6.77 µM and 3.65 µM
GI50 [14]: 2.13 µM
TGI [14]: 5.14 µM and 4.67 µM
TGI [61]: 3.97 µM
TGI [15]: 9.66 µM and 6.39 µM
TGI [16]: 8.88 µM and 4.01 µM
GI50 [17]: 8.36 µM and 3.44 µM
TGI [17]: 21.2 µM and 10.6 µM
GI50 [19]: 19.7 µM and 9.53 µM
TGI [19]: 38.8 µM and 19.8 µM
TGI [20]: 3.95 µM and 2.38 µM
GI50 [21]: 0.825 µM and 1.8 µM
TGI [21]: 9.58 µM and 5.53 µM
TGI [22]: 3.25 µM and 3.42 µM
GI50 [23]: 1.74 µM and 3.54 µM
TGI [23]: 3.62 µM and 7.92 µM
TGI [24]: 11.6 µM and 13.5 µM
TGI [25]: 2.84 µM and 5.22 µM
TGI [26]: 6.05 µM and 11.5 µM
GI50 [27]: 2.04 µM and 5.73 µM
TGI [27]: 5.68 µM and 13.3 µM
TGI [28]: 15.7 µM and 25.6 µM
TGI [29]: 14.1 µM and 48.4 µM
GI50 [30]: 2 µM
TGI [30]: 5.5 µM
TGI [31]: 26.9 µM and 37.6 µM
TGI [32]: 5.71 µM and 29.7 µM
GI50 [33]: 4.74 µM and 9.8 µM
TGI [33]: 10.2 µM and 23.2 µM
GI50 [34]: 0.774 µM
TGI [34]: 10.7 µM and 2.11 µM
TGI [35]: 20.8 µM
TGI [36]: 24.7 µM and 29.8 µM
TGI [62]: 31.6 µM and 31.2 µM
TGI [63]: 28 µM and 27.8 µM
TGI [37]: 11.1 µM and 12.1 µM
TGI [38]: 5.47 µM
TGI [39]: 16.7 µM and 32.1 µM
TGI [64]: 3.34 µM
GI50 [40]: 0.655 µM and 6.44 µM
TGI [40]: 24.5 µM and 15.7 µM
TGI [41]: 22.8 µM and 21.9 µM
TGI [42]: 5.76 µM and 3.09 µM
TGI [43]: 21.3 µM and 23.5 µM
TGI [65]: 3.58 µM and 3.73 µM
TGI [44]: 11.7 µM and 8.03 µM
GI50 [45]: 1.75 µM and 3.77 µM
TGI [45]: 3.38 µM and 8.06 µM
TGI [66]: 3.12 µM and 3.19 µM
TGI [46]: 4.21 µM and 5.38 µM
TGI [47]: 3.26 µM and 4.03 µM
GI50 [67]: 2.42 µM and 7.82 µM
TGI [67]: 5.66 µM and 14.2 µM
GI50 [48]: 2.03 µM and 5.59 µM
TGI [48]: 3.94 µM and 12.4 µM
TGI [49]: 3.51 µM and 5.38 µM
TGI [50]: 6.54 µM and 7.29 µM
GI50 [51]: 5.18 µM and 16 µM
TGI [51]: 9.7 µM and 32.3 µM
TGI [68]: 7.02 µM and 20.3 µM
TGI [52]: 8.91 µM and 7.47 µM
TGI [53]: 7.91 µM and 9.73 µM

O=C1/C(=C/c2ccccc2)CN(C(=O)Oc2ccc(Cl)cc2)C/C1=C\c1ccccc1
TGI [54]: 4.33 µM
TGI [1]: 16.5 µM
TGI [2]: 10.1 µM
TGI [3]: 10.6 µM
TGI [4]: 5.42 µM
TGI [5]: 5.51 µM
TGI [55]: 42.3 µM
TGI [6]: 16.6 µM
TGI [7]: 2.97 µM
TGI [8]: 10.2 µM
TGI [9]: 8.63 µM
TGI [10]: 0.593 µM
TGI [11]: 0.902 µM
TGI [58]: 9.84 µM
TGI [12]: 3.64 µM
TGI [13]: 26.7 µM
TGI [14]: 5.79 µM
TGI [15]: 2.99 µM
TGI [16]: 3.88 µM
TGI [17]: 20.5 µM
TGI [19]: 23.2 µM
TGI [20]: 3.52 µM
TGI [21]: 6.39 µM
TGI [22]: 3.48 µM
TGI [23]: 9.53 µM
TGI [24]: 8.86 µM
TGI [25]: 3.61 µM
TGI [26]: 3.6 µM
TGI [27]: 11.1 µM
TGI [28]: 8.77 µM
TGI [29]: 4.33 µM
TGI [30]: 2.77 µM
TGI [31]: 16.6 µM
TGI [32]: 12.6 µM
TGI [33]: 5.92 µM
TGI [34]: 4.5 µM
TGI [35]: > 26.8 µM
TGI [36]: 14.9 µM
TGI [62]: 7.81 µM
TGI [37]: 3.96 µM
TGI [38]: 5.71 µM
TGI [39]: 14.7 µM
TGI [40]: 8.28 µM
TGI [41]: 36.6 µM
TGI [42]: 3.68 µM
TGI [43]: 3.28 µM
TGI [44]: 2.41 µM
TGI [45]: 2.97 µM
TGI [46]: 4.14 µM
TGI [47]: 2.51 µM
TGI [67]: 4.14 µM
TGI [48]: 4.18 µM
TGI [49]: 2.73 µM
TGI [50]: 4.26 µM
TGI [51]: 5.79 µM
TGI [52]: 15.5 µM
TGI [53]: 26.7 µM
